# Data as given in patent publication US5714347A (priority 1995, dated 1998).
# Like-named read-outs stand apart in the source and are kept apart here.
# Assays:
# [1] = system: periplasmic carboxypeptidase in E. coli BL21 (DE3) extracts; format: biochemical
# Protocol: The pI shift upon incubation of ubiquitin with carboxypeptidase B was used as a convenient assay to test for carboxyl terminal glycine dipeptide processing in E. coli BL21 (DE3) extracts.
# We tested a variety of metal salts for the ability to inhibit ubiquitin inactivation.
# [2] = system: rabbit reticulocyte ubiquitin activating enzyme (E1); format: biochemical
# Protocol: The incorporation of ^32 PPi into ATP was measured by adsorbing the resulting ^32 P-labeled ATP onto charcoal and counting the bound radioactivity by Cerenkov radiation (Haas, A. L. and Rose, I. A., supra, 1982). Nonspecifically-bound ^32 PPi was corrected by subtracting radioactivity in control incubations conducted in the absence of added E1 (Haas, A. L. and Rose, I. A., supra, 1982).
# Since these measurements were conducted in the absence of added AMP, the kinetic constants reflect step 3 of the E1 reaction involving formation of the final ternary complex (Haas, A. L. and Rose, I. A. J. Biol. Chem., .supra, 1982).
# carboxypeptidase B = experiment: pI shift assay (isoelectric focusing after carboxypeptidase B) for intact carboxyl terminal glycine dipeptide
# From the text: Previous work has shown that the carboxyl terminal glycine dipeptide of ubiquitin is acutely sensitive to cleavage by trypsin-like activities (Haas, A. L., et al., J. Biol. Chem. 260:4694-4703, 1985; Wilkinson, K. D. and Audhya, T. K., J. Biol. Chem. 256:9235-9241, 1981). […] The specificity of carboxypeptidase B for lysine and arginine precludes a similar pI shift for intact ubiquitin in which R74 is masked by the glycine dipeptide (Haas, A. L., et al., supra, 1985).
# [3] = system: A549 human lung carcinoma cell extract; experiment: In vitro conjugation of 125I-UCRP to cellular proteins; format: biochemical; conditions: for inhibition of 125I-UCRP conjugation by excess unlabeled protein: isotope dilution, parallel incubations
# Protocol: Confluent monolayer cultures of A549 human lung carcinoma cells were grown in Dulbecco's modified Eagle's medium supplemented with 10% (v/v) heat-inactivated fetal bovine serum. Cultures were maintained at 37° C. in a humidified 5% CO2 atmosphere. Cultures of A549 cells were induced by adding IFNβ to a final concentration of 1000 IU/ml (Loeb, K. R. and Haas, A. L., supra, 1992). Following 24 hours induction, cells were rinsed twice with PBS then harvested by scraping directly into 50 mM Tris-Cl (pH 7.6) containing 2 mMATP, 10 mM MgCl2, and 1 mM DTT (100 μl/100 mm plate). The cells were then briefly sonicated and the extracts used without further fractionation.
# [4] = system: rabbit reticulocyte ubiquitin activating enzyme (E1); conditions: cited from earlier work
# [5] = system: A549 human lung carcinoma cell extract; conditions: previous preparations, Loeb and Haas 1992; Loeb 1993; cited from earlier work
# [6] = target: T1, ubiquitin activating enzyme (E1) (Oryctolagus cuniculus, UniProt Q29504); experiment: Stoichiometry and kinetics of E1-bound adenylate formation (TCA-precipitable radioactivity with [2,8-3H]ATP); format: biochemical; conditions: for [3H]adenylate formation: 1 pmol of E1, inorganic pyrophosphatase
# T1 construct: from rabbit reticulocytes, rabbit liver, and human erythrocytes; from tissue; host or cells: rabbit reticulocytes (inferred for this assay)
# T1 sequence (Q29504 1-1058): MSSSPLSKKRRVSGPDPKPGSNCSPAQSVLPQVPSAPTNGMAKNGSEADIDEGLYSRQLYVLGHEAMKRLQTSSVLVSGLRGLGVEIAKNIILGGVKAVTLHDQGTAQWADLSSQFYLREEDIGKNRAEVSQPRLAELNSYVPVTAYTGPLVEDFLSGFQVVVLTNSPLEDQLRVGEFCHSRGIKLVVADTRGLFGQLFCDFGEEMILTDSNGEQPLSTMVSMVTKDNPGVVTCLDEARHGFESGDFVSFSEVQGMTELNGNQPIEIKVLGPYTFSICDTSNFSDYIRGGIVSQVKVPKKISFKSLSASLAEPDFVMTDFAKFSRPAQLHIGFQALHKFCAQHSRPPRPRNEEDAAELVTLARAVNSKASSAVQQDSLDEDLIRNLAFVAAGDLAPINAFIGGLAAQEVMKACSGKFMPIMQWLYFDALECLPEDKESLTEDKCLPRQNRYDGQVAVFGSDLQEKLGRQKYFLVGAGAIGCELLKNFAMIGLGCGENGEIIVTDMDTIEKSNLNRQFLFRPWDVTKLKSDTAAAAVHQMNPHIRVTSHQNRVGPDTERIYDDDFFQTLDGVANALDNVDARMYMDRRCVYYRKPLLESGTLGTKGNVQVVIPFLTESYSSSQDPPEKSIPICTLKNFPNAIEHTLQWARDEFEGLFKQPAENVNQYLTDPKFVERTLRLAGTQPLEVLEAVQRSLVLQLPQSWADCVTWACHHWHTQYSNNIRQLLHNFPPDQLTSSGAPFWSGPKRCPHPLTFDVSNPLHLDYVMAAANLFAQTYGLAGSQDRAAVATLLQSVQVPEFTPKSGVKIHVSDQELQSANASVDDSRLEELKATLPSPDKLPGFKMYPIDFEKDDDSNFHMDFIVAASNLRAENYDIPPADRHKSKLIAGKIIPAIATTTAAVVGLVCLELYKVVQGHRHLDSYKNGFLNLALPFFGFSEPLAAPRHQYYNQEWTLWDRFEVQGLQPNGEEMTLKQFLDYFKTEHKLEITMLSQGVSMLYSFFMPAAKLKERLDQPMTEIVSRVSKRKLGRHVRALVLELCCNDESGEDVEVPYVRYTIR
# From the text: Recent studies by Burch and Haas have shown that mutagenesis of specific ubiquitin residues sufficiently compromises binding of the resulting adenylate within the E1 active site to allow dissociation of the intermediate (Burch, T. J. and Haas, A. L., supra, 1994). The free but not the bound pool of ubiquitin [^3 H]adenylate is sensitive to cleavage by ubiquitin carboxyl terminal hydrolase (Burch, T. J. and Haas, A. L., supra, 1994; Pickart, C. M. and Rose, I. A., J. Biol. Chem. 260:7903-7910,1985).
compound,measurement,setting,value
[Cl][Cd][Cl] [CdCl2],inhibiting UCRP inactivation,[1],effective
[Cl-].[Cl-].[Co+2] [CoCl2],ubiquitin and UCRP glycine dipeptide excision,[1]; 5 mM,quantitatively blocks
same,inhibiting ubiquitin inactivation,[1]; among the metal salts tested,most effective
O=C(O)CN(CCN(CC(=O)O)CC(=O)O)CC(=O)O [EDTA],rate of ubiquitin inactivation,[1],stimulated
[Cl][Hg][Cl] [HgCl2],inhibiting UCRP inactivation,[1],effective
UCRP generated from UCRP-R: Intact UCRP resulting from removal of the arginine cap of purified UCRP-R,K1/2,"[2]; UCRP 5 to 50 μM, 20 nM E1, 37° C., absence of added AMP (step 3)",24 µM
same,pI shift upon incubation with carboxypeptidase B,carboxypeptidase B,absence of a pI shift
"^125 I-UCRP: Intact UCRP isolated in the presence of CoCl2, labeled with 125I",dependence of conjugation on ATP and ATP regenerating system,[3]; both extracts,absolutely dependent
same,rate of conjugation to cellular proteins,"[3]; extracts from A549 cultures induced 24 hours with 1000 IU/ml interferon-β (+IFN), versus uninduced",significantly greater
same,rate of conjugation to cellular proteins,"[3]; extracts from uninduced cells (-IFN), 90 minutes incubation",low but measurable rate
"pure intact native UCRP: Pure intact native UCRP, K1/2 from Narasimhan et al. 1996",K1/2,"[4]; pure intact native UCRP, Narasimhan et al. 1996 in press",24 µM
"recombinant ^125 I-UCRP: Radioiodinated recombinant UCRP of the previous, proteolytically inactivated preparations",conjugation when added to fresh extracts of A549 cells,[5],unable to demonstrate conjugation
ubiquitin,first order rate constant of [3H]adenylate formation,[6],≥ 6 min⁻¹
same,[3H]adenylate formation,[6]; within a 1 minute incubation,equivalent amount
same,inhibition of 125I-UCRP conjugation by excess unlabeled protein,[3],not
same,K1/2,"[4]; step 3 of ubiquitin-supported reaction, values taken from Haas and Rose 1982",1.2 µM
same,substrate inhibition,"[4]; ubiquitin at high concentrations, Haas and Rose 1982",pronounced substrate inhibition
same,kcat,"[4]; ubiquitin-supported reaction, values taken from Haas and Rose 1982",9.6 s⁻¹
ubiquitin cross-reactive protein [UCRP],K1/2,[2],24 µM
same,substrate inhibition,[2],no substrate inhibition
same,first order rate constant of [3H]adenylate formation,[6],0.42 min⁻¹
same,[3H]adenylate formation,[6]; after 5 minutes,0.11 pmol
same,inhibition of 125I-UCRP conjugation by excess unlabeled protein,[3],marked inhibition
